# Source: patent US20150299188A1, “HETEROCYCLIC COMPOUND” (priority 2012, published 2015)
# Test system: FLAP (5-lipoxygenase activating protein)
# Experiment: In vitro binding test: displacement of [3H]-7-chloro-3-(5-((3-fluoropyridin-2-yl)methoxy)-2-methylphenyl)-3,4-dihydroquinazolin-2(1H)-one from Sf9 microsome fractions
# Set-up: species or system human and mouse
# Conditions: Sf9 microsome fractions expressing FLAP; 100% = radioligand binding with 10 μM sodium 3-(3-(tert-butylsulfanyl)-1-(4-chlorobenzyl)-5-isopropyl-1H-indol-2-yl)-2,2-dimethylpropanoate, 0% = DMSO; test compound concentration not given
# Outline: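 Sf9 microsomes expressing human or mouse FLAP (2 μg/mL) preincubated with compound 10 min at room temperature, then 120 nM tritiated quinazolinone ligand added for 60 min; buffer 100 mM Tris-HCl pH 7.5 with NaCl, EDTA, DTT, glycerol, Tween20. Bound ligand filtered and counted by scintillation; 10 μM indole propanoate defines 100% inhibition, DMSO 0%.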
row,SMILES,inhibitory rate (%)
1,"Cc1ccc(OCc2ncccc2F)cc1N1Cc2ccc(C(=O)Nc3ccccn3)cc2NC1=O [Example 271, 3-(5-((3-fluoropyridin-2-yl)methoxy)-2-methylphenyl)-2-oxo-N-(pyridin-2-yl)-1,2,3,4-tetrahydroquinazoline-7-carboxamide]",100%
2,"Cc1ccc(OCc2ncccc2F)cc1N1Cc2ccc(C(=O)Nc3ccccc3)cc2NC1=O [Example 273, 3-(5-((3-fluoropyridin-2-yl)methoxy)-2-methylphenyl)-2-oxo-N-phenyl-1,2,3,4-tetrahydroquinazoline-7-carboxamide]",100%
3,"Cc1ccc(OCc2ncccc2F)cc1N1Cc2nn(CC3CC3)cc2NC1=O [Example 276, 2-(cyclopropylmethyl)-6-(5-((3-fluoropyridin-2-yl)methoxy)-2-methylphenyl)-2,4,6,7-tetrahydro-5H-pyrazolo[4,3-d]pyrimidin-5-one]",101%
4,"O=C(CCc1ccc(OCc2ncccc2F)cc1N1Cc2ccccc2NC1=O)NC1CC1 [Example 280, N-cyclopropyl-3-(4-((3-fluoropyridin-2-yl)methoxy)-2-(2-oxo-1,4-dihydroquinazolin-3(2H)-yl)phenyl)propanamide]",62%
5,"COCCN1C(=O)N(c2cc(OCc3ncccc3F)ccc2C)Cc2c(Cl)cccc21 [Example 283, 5-chloro-3-(5-((3-fluoropyridin-2-yl)methoxy)-2-methylphenyl)-1-(2-methoxyethyl)-3,4-dihydroquinazolin-2(1H)-one]",100%
6,"Cc1ccc(OCc2ncccc2F)cc1N1Cc2c(Cl)cccc2N(CC2CC2)C1=O [Example 284, 5-chloro-1-(cyclopropylmethyl)-3-(5-((3-fluoropyridin-2-yl)methoxy)-2-methylphenyl)-3,4-dihydroquinazolin-2(1H)-one]",105%
7,"O=C1Nc2cccc(Cl)c2CN1c1cc(OCc2ncccc2F)c(F)cc1Cl [Example 287, 5-chloro-3-(2-chloro-4-fluoro-5-((3-fluoropyridin-2-yl)methoxy)phenyl)-3,4-dihydroquinazolin-2(1H)-one]",95%
8,"Cc1ccc(OCc2ncccc2F)cc1N1Cc2ccc(C(=O)N3CCOCC3)cc2NC1=O [Example 288, 3-(5-((3-fluoropyridin-2-yl)methoxy)-2-methylphenyl)-7-(morpholin-4-ylcarbonyl)-3,4-dihydroquinazolin-2(1H)-one]",104%
9,"CC(C)(O)c1ccc2c(c1)NC(=O)N(c1cc(OCc3c(F)cccc3F)ccc1CC1CCCCC1)C2 [Example 289, 3-(2-(cyclohexylmethyl)-5-((2,6-difluorobenzyl)oxy)phenyl)-7-(2-hydroxypropan-2-yl)-3,4-dihydroquinazolin-2(1H)-one]",80%
10,"O=C1Nc2cc(CO)ccc2CN1c1cc(OCc2c(F)cccc2F)ccc1CC1CCCCC1 [Example 290, 3-(2-(cyclohexylmethyl)-5-((2,6-difluorobenzyl)oxy)phenyl)-7-(hydroxymethyl)-3,4-dihydroquinazolin-2(1H)-one]",97%
11,"CC(C)(C)Cc1ccc(OCc2c(F)cccc2F)cc1N1Cc2ccc(C(C)(C)O)cc2NC1=O [Example 293, 3-(5-((2,6-difluorobenzyl)oxy)-2-(2,2-dimethylpropyl)phenyl)-7-(2-hydroxypropan-2-yl)-3,4-dihydroquinazolin-2(1H)-one]",84%
12,"CC(C)(C)Cc1ccc(OCc2c(F)cccc2F)cc1N1Cc2ccc(CO)cc2NC1=O [Example 294, 3-(5-((2,6-difluorobenzyl)oxy)-2-(2,2-dimethylpropyl)phenyl)-7-(hydroxymethyl)-3,4-dihydroquinazolin-2(1H)-one]",65%
13,"COC(=O)c1ccccc1CN1C(=O)N(c2cc(OCc3ncccc3F)ccc2C)Cc2c(Cl)cccc21 [Example 295, methyl 2-((5-chloro-3-(5-((3-fluoropyridin-2-yl)methoxy)-2-methylphenyl)-2-oxo-3,4-dihydroquinazolin-1(2H)-yl)methyl)benzoate]",102%
14,"Cc1ccc(OCc2ncccc2F)cc1N1Cc2c(Cl)cccc2N(Cc2ccccc2C(=O)O)C1=O [Example 296, 2-((5-chloro-3-(5-((3-fluoropyridin-2-yl)methoxy)-2-methylphenyl)-2-oxo-3,4-dihydroquinazolin-1(2H)-yl)methyl)benzoic acid]",95%
15,"Cc1ccc(OCc2ncccc2F)cc1N1Cc2c(Cl)cc(C(=O)NC3CC3)cc2NC1=O [Example 299, 5-chloro-N-cyclopropyl-3-(5-((3-fluoropyridin-2-yl)methoxy)-2-methylphenyl)-2-oxo-1,2,3,4-tetrahydroquinazoline-7-carboxamide]",113%

# The remaining lines, values ahead:
row,inhibitory rate (%),SMILES
1,111%,"Cc1ccc(OCc2ncccc2F)cc1N1Cc2c(Cl)cccc2N(C)C1=O [Example 269, 5-chloro-3-(5-((3-fluoropyridin-2-yl)methoxy)-2-methylphenyl)-1-methyl-3,4-dihydroquinazolin-2(1H)-one]"
2,104%,"Cc1ccc(OCc2ncccc2F)cc1N1Cc2ccc(C(=O)NC(C)C)cc2NC1=O [Example 270, 3-(5-((3-fluoropyridin-2-yl)methoxy)-2-methylphenyl)-N-isopropyl-2-oxo-1,2,3,4-tetrahydroquinazoline-7-carboxamide]"
3,95%,"Cc1ccc(OCc2ncccc2F)cc1N1Cc2ncccc2NC1=O [Example 272, 3-(5-((3-fluoropyridin-2-yl)methoxy)-2-methylphenyl)-3,4-dihydropyrido[3,2-d]pyrimidin-2(1H)-one]"
4,106%,"Cc1ccc(OCc2ncccn2)cc1N1Cc2c(Cl)cccc2NC1=O [Example 274, 5-chloro-3-(2-methyl-5-(pyrimidin-2-ylmethoxy)phenyl)-3,4-dihydroquinazolin-2(1H)-one]"
5,101%,"Cc1ccc(OCc2ncccc2F)cc1N1Cc2ccc(C(F)(F)F)cc2NC1=O [Example 275, 3-(5-((3-fluoropyridin-2-yl)methoxy)-2-methylphenyl)-7-(trifluoromethyl)-3,4-dihydroquinazolin-2(1H)-one]"
6,99%,"O=C1Nc2cccc(Cl)c2CN1c1cc(OCc2ncccc2F)ccc1Br [Example 277, 3-(2-bromo-5-((3-fluoropyridin-2-yl)methoxy)phenyl)-5-chloro-3,4-dihydroquinazolin-2(1H)-one]"
7,96%,"N#Cc1ccc(OCc2ncccc2F)cc1N1Cc2c(Cl)cccc2NC1=O [Example 278, 2-(5-chloro-2-oxo-1,4-dihydroquinazolin-3(2H)-yl)-4-((3-fluoropyridin-2-yl)methoxy)benzonitrile]"
8,103%,"Cc1ccc(OCc2ncccc2F)cc1N1Cc2c(ccnc2Cl)NC1=O [Example 279, 5-chloro-3-(5-((3-fluoropyridin-2-yl)methoxy)-2-methylphenyl)-3,4-dihydropyrido[4,3-d]pyrimidin-2(1H)-one]"
9,107%,"Cc1ccc(OCc2ncccc2F)cc1N1Cc2c(F)cccc2NC1=O [Example 281, 5-fluoro-3-(5-((3-fluoropyridin-2-yl)methoxy)-2-methylphenyl)-3,4-dihydroquinazolin-2(1H)-one]"
10,98%,"Cc1ccc(OCc2ncccc2F)cc1N1Cc2c(Br)cccc2NC1=O [Example 282, 5-bromo-3-(5-((3-fluoropyridin-2-yl)methoxy)-2-methylphenyl)-3,4-dihydroquinazolin-2(1H)-one]"
11,102%,"Cc1ccc(OCc2ncccc2F)cc1N1Cc2c(Cl)cccc2N(CC(=O)O)C1=O [Example 285, (5-chloro-3-(5-((3-fluoropyridin-2-yl)methoxy)-2-methylphenyl)-2-oxo-3,4-dihydroquinazolin-1(2H)-yl)acetic acid]"
12,112%,"Cc1ccc(OCc2ncccc2F)cc1N1Cc2c(Cl)cccc2N(CC(N)=O)C1=O [Example 286, 2-(5-chloro-3-(5-((3-fluoropyridin-2-yl)methoxy)-2-methylphenyl)-2-oxo-3,4-dihydroquinazolin-1(2H)-yl)acetamide]"
13,94%,"Cc1ccc(OCc2ncccc2F)cc1N1Cc2c(Cl)cccc2N(C)C1=O [Example 291, 5-chloro-3-(5-((3-fluoropyridin-2-yl)methoxy)-2-methylphenyl)-1-methyl-3,4-dihydroquinazolin-2(1H)-one]"
14,107%,"Cc1ccc(OCc2ncccc2F)cc1N1Cc2c(Cl)cc(C(=O)O)cc2NC1=O [Example 292, 5-chloro-3-(5-((3-fluoropyridin-2-yl)methoxy)-2-methylphenyl)-2-oxo-1,2,3,4-tetrahydroquinazoline-7-carboxylic acid]"
15,106%,"Cc1ccc(OCc2ncccc2F)cc1N1Cc2c(cccc2C(F)(F)F)NC1=O [Example 297, 3-(5-((3-fluoropyridin-2-yl)methoxy)-2-methylphenyl)-5-(trifluoromethyl)-3,4-dihydroquinazolin-2(1H)-one]"
16,104%,"Cc1ccc(OCc2ncccc2F)cc1N1Cc2c(C#N)cccc2NC1=O [Example 298, 3-(5-((3-fluoropyridin-2-yl)methoxy)-2-methylphenyl)-2-oxo-1,2,3,4-tetrahydroquinazoline-5-carbonitrile]"
17,105%,"O=C1Nc2ccccc2CN1c1cc(OCc2ncccc2F)ccc1F [Example 300, 3-(2-fluoro-5-((3-fluoropyridin-2-yl)methoxy)phenyl)-3,4-dihydroquinazolin-2(1H)-one]"
18,104%,"O=C1Nc2cc(Br)ccc2CN1c1cc(OCc2ncccc2F)ccc1C(F)(F)F [Example 301, 7-bromo-3-(5-((3-fluoropyridin-2-yl)methoxy)-2-(trifluoromethyl)phenyl)-3,4-dihydroquinazolin-2(1H)-one]"
